The source of these data is ChEMBL document CHEMBL4130622, “Retinoic Acid Receptor-Related Orphan Receptor γt (RORγt) Agonists as Potential Small Molecule Therapeutics for Cancer Immunotherapy” (J Med Chem, 2018).

SMILES strings stand for the structures. pEC50: −log10 of the molar value.

In assay [1] the target is T1, Nuclear receptor ROR-gamma (Homo sapiens) (UniProt P51449).
T1 sequence (whole entry): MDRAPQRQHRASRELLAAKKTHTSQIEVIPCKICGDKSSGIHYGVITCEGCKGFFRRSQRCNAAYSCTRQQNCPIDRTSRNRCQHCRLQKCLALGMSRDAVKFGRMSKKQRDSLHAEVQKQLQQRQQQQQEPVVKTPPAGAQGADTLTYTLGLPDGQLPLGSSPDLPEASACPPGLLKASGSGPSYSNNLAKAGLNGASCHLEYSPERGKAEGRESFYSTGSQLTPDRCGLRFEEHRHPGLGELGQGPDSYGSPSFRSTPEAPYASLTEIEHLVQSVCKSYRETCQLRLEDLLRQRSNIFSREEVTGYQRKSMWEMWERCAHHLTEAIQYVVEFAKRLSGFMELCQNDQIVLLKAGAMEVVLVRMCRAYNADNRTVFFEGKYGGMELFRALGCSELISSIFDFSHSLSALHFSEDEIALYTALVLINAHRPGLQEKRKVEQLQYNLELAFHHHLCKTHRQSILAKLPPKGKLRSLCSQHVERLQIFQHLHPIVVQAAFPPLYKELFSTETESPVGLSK
The assay is described as follows: Agonist activity at His tagged human RORgammat LBD (unknown origin) expressed in baculovirus infected sf9 cells assessed as biotinylated-LXXLL peptide coactivator recruitment at <0.5 uM incubated for overnight by TR-FRET Assay relative to control.

Assay [2] deals with T1, Nuclear receptor ROR-gamma (Homo sapiens). The assay is described as follows: Agonist activity at Gal4-fused DBD RORgammat LBD (unknown origin) expressed in HEK293 cells assessed as coactivator recruitment at <0.5 uM incubated for overnight in presence of ursolic acid by luciferase reporter gene Assay relative to control. Type of assay: cell-based.
Assay [3] has as its target T2, Nuclear receptor ROR-gamma (Homo sapiens, UniProt P51449).
T2 sequence (P51449 whole entry): T1 sequence (whole entry)
The assay is described as follows: Agonist activity at 6xHis tagged human RORgammat LBD (262 to 507 residues) expressed in Escherichia coli BL21 (DE3) assessed as biotinylated SRC1-2 peptide coactivator recruitment by AlphaScreen assay. A general note: Bead proximity is the source of the signal in Alpha formats.

In assay [4] the target is T2, Nuclear receptor ROR-gamma. Briefly: Agonist activity at Gal4-fused DBD RORgammat LBD (unknown origin) expressed in HEK293 cells assessed as coactivator recruitment incubated for overnight in presence of ursolic acid by luciferase reporter gene Assay. Type of assay: cell-based. In general terms: In a reporter assay the amount or activity of a reporter protein is the signal.

The target of assay [5] is T2, Nuclear receptor ROR-gamma. The assay is described as follows: Agonist activity at His tagged RORgammat LBD (unknown origin) expressed in baculovirus infected sf9 cells assessed as biotinylated-LXXLL peptide coactivator recruitment incubated for overnight by TR-FRET Assay. (TR-FRET usually uses a lanthanide donor and a delayed reading to cut background.)
Assay [6] has as its target T2, Nuclear receptor ROR-gamma. Briefly: Agonist activity at Gal4-fused RORgammat DNA binding domain (unknown origin) expressed in 293T cells assessed as SRC1 coactivator recruitment in presence of ursolic acid by TR-FRET assay. Type of assay: cell-based.

With `C/C(=C\c1ccc2c(c1)N(S(=O)(=O)c1cccc(C(F)(F)F)c1)C[C@H](CCc1nn[nH]n1)O2)c1c(F)cccc1Cl`, the Activity in assay [1] and in assay [2] was > 200% throughout.
Consider `CC(C)CCC[C@@](C)(O)[C@H]1CC[C@H]2[C@@H]3CC=C4C[C@@H](O)CC[C@]4(C)[C@H]3CC[C@@]21C`, for which the pEC50 in assay [3] is 7.40 to 7.70.
For the compound `CC(C)CC[C@@H](O)[C@@H](C)[C@H]1CC[C@H]2[C@@H]3CC=C4C[C@@H](O)CC[C@]4(C)[C@H]3CC[C@]12C` [22(R)-HYDROXYCHOLESTEROL], in assay [3], the pEC50 is 7.40 to 7.70.
Regarding `CCN(c1cccc(OCc2c(Cl)cccc2Cl)c1)S(=O)(=O)c1cccc(C(F)(F)F)c1`, the Activity in assay [1] and in assay [2] was > 200% in each case.
As to `C[C@H]1CN(S(=O)(=O)c2cccc(C(F)(F)F)c2)c2nc(COc3c(F)cccc3Cl)ccc2O1`, the pEC50 in assay [4] and in assay [5] was > 6.30 each time.
As for `CC(C)CCC[C@@H](C)[C@H]1CC[C@H]2[C@@H]3CC=C4C[C@@H](O)CC[C@]4(C)[C@H]3CC[C@]12C` [CHOLESTEROL], the negative logarithm of the EC50 (pEC50) in assay [3] is 7.70.
As for `CC(C)=CCC[C@@H](C)[C@H]1CC[C@H]2[C@@H]3CC=C4C[C@@H](O)CC[C@]4(C)[C@H]3CC[C@]12C` [DESMOSTEROL], the pEC50 in assay [6] was 7.10.
In the case of `CC(C)=CCC[C@@H](C)[C@H]1CC[C@H]2C3=C(CC[C@]12C)[C@@]1(C)CC[C@H](O)C[C@@H]1CC3`, the pEC50 in assay [6] is 6.96.
In the case of `O=C(O)C1Cc2ccc(OCc3c(F)cccc3Cl)cc2N(S(=O)(=O)c2cccc(C(F)(F)F)c2)C1` (stereo not given), the Activity in assay [1] and in assay [2] was > 200% in each case.
In the case of `COc1c(Cl)cccc1-c1ccc2c(c1)N(S(=O)(=O)c1cccc(C(F)(F)F)c1)C[C@H](CCC(=O)O)O2`, the Activity in assay [1] and in assay [2] was > 200% each time.

Broadly, the pEC50 is the negative decadic logarithm of the EC50, by convention in mol/L.
